Experiment [1] deals with Retinoic Acid Response Element (RARE) transcription factor pathway. In words: Cignal RARE Reporter Assay (firefly luciferase) in HEK293 cells. The experiment is classed as cell-based. The settings on record: for RARE-mediated firefly luciferase expression, % control / RARE-mediated firefly luciferase expression, Fold increase: 24 h, vs water; for Activity in RARE reporter assay: tested concentrations. An excerpt: Objective: Retinoic Acid Receptor (RAR) controls gene transcription by binding to Retinoid Acid Response Elements (RAREs) in DNA. This process is modulated by all trans retinoic acid (ATRA)—a compound with well-established anti-aging skin benefits. […] Cignal RARE Reporter Assay® is designed to screen for such compounds using cell cultures. The objective of this project was to test 6 compounds (retinoic acid (ATRA), retinol, vitamin A palmitate, retinal, 10% w/w Near-1 in dimethylisosorbide, and 10% w/w retinoid ester in dimethylisosorbide) for the ability to activate RARE in this Cignal RARE Reporter Assay model.
Materials & Methods: The experiments were performed using HEK293 cells (Sigma, St. Louis, Mo.; cat. #85120602) seeded at 50,000 per well in a 96 well black-wall tissue culture plate. Cells were transfected by mixing Cignal Reporter Assay firefly/renilla luciferase constructs (cat. #CCS-016L; Qiagen) with Attractene Transfection Reagent (Qiagen) in Opti-MEM supplemented with 1% MEM Non-essential amino acid solution without L-glutamine. After medium change test materials were added and their effect on RARE induction was quantified 24 h later with the Dual-Luciferase Reporter Assay System (cat. #E1960; Promega).
For orientation: In a reporter assay the amount or activity of a reporter protein is the signal.

The subject of experiment [2] is Retinoid X receptor (RXR) transcription factor pathway. The experiment can be described thus: Cignal RXR Reporter Assay (firefly luciferase) in HEK293 cells. The conditions noted are these: for RXR activation (% control): 24 h, vs water; for Activity in RXR reporter assay: tested concentrations. Type of experiment: cell-based. An excerpt:
Objective: Retinoid X receptors (RXRs) are one class of nuclear receptors through which retinoids mediate their biological effects. These receptors function as transcription factors by binding as heterodimers to specific sequences in the promoters of target genes. The protein encoded by this gene is a member of the steroid and thyroid hormone receptor superfamily of transcriptional regulators. One of its ligands is all trans retinoic acid (ATRA)—a compound with well-established anti-aging skin benefits. […] Cignal RXR Reporter Assay® is designed to screen for such compounds (retinoic acid (ATRA), retinal, 10% w/w Near-1 in dimethylisosorbide, and 10% w/w retinoid ester in dimethylisosorbide) using cell cultures. The objective of this project was to test four compounds for the ability to activate RXR in this Cignal RXR Reporter Assay model.
The experiments were performed using HEK293 cells (Sigma, St. Louis, Mo.; cat. #85120602) seeded at 50,000 per well in a 96 well black-wall tissue culture plate. Cells were transfected by mixing Cignal RXR Reporter Assay firefly/renilla luciferase constructs (cat. #CCS9044L; Qiagen) with Attractene Transfection Reagent (Qiagen) in Opti-MEM supplemented with 1% MEM Non-essential amino acid solution without Lglutamine. After medium change test materials were added and their effect on RXR induction was quantified 24 h later with the Dual-Luciferase Reporter Assay System (cat. #E1960; Promega).
RXR is a mixture of an inducible retinoid X receptor—responsive firefly luciferase construct and a constitutively expressing Renilla construct, which acts as an internal control for normalizing transfection efficiencies and monitoring cell viability. Signal quantification was obtained with ThermoFisher Scientific Luminoskan Ascent Microplate Luminometer.

SMILES strings stand for the structures. “And” between values parts separate entries of the source, which are not always exact repeats. Equal entries are not always repeated.

Take `CCCCCCCCCCCCCCCC(=O)OC/C=C(C)/C=C/C=C(C)/C=C/C1=C(C)CCCC1(C)C` [Vit A Palmitate, vitamin A palmitate]: the “RARE-mediated firefly luciferase expression, % control” value in experiment [1] (1 μM) is 75 % control and 76 % control; in experiment [1] (5 μM) it was 77 % control and 73 % control; in experiment [1] (10 μM) it was 86 % control and 67 % control. The “RARE-mediated firefly luciferase expression, Fold increase” value is 0.7 and 0.8 in experiment [1] (1 μM); 0.8 and 0.7 in experiment [1] (5 μM); 0.9 and 0.7 in experiment [1] (10 μM). The “Activity in RARE reporter assay” value in experiment [1] is recorded as “All test materials except Vit-A-Pal were active”.
Take `CC1=C(/C=C/C(C)=C/C=C/C(C)=C/C=O)C(C)(C)CCC1` [Retinal, retinaldehyde]: the “RXR activation (% control)” value in experiment [2] (1 μM) came out at 131 % control; in experiment [2] (5 μM) it was 181 % control; in experiment [2] (10 μM) it was 279 % control. Also, the “times less effective in modulating RXR pathway in comparison to retinoic acid” value in experiment [2] (at 5 uM) is reported as 2.4 times. Further, the “Activity in RXR reporter assay” value in experiment [2] is reported as “best performers”. In addition, the “RARE-mediated firefly luciferase expression, % control” value in experiment [1] (1 μM) was 613 % control; in experiment [1] (5 μM), 1005 % control; in experiment [1] (10 μM) it was 946 % control. Besides, the figures for the “RARE-mediated firefly luciferase expression, Fold increase” value in experiment [1] (1 μM), in experiment [1] (5 μM) and in experiment [1] (10 μM) were 6.1, 10.0 and 9.5, respectively. For the same compound, the “times less effective than retinoic acid in modulating the RARE pathway” value in experiment [1] (at 1 uM) stood at 1.7 times. Also, the “effectiveness vs retinoic acid in modulating the RARE pathway” value in experiment [1] (at 5 uM) is “equivalent to retinoic acid”. For the same compound, the “Activity in RARE reporter assay” value in experiment [1] was “best performer”.
As for `CC1=C(/C=C/C(C)=C/C=C/C(C)=C/C(=O)O)C(C)(C)CCC1` [ATRA, all trans retinoic acid], the “RXR activation (% control)” value in experiment [2] (0.2 μM) is 201 % control; in experiment [2] (1 μM), 340 % control; in experiment [2] (5 μM) it was 437 % control. Further, in experiment [2], the “Activity in RXR reporter assay” value was “best performers”. Also, the “RARE-mediated firefly luciferase expression, % control” value is 775 % control and 1099 % control in experiment [1] (0.2 μM); 1054 % control and 1284 % control in experiment [1] (1 μM); 973 % control in experiment [1] (5 μM). In addition, the “RARE-mediated firefly luciferase expression, Fold increase” value in experiment [1] (0.2 μM) is 7.8 and 11.0; in experiment [1] (1 μM) it was 10.5 and 12.8; in experiment [1] (5 μM) it was 9.7.
In the case of `CC1=C(/C=C/C(C)=C/C=C/C(C)=C/CO)C(C)(C)CCC1` [Retinol, retinol], the “RARE-mediated firefly luciferase expression, % control” value was 138 % control and 150 % control in experiment [1] (1 μM); 268 % control and 253 % control in experiment [1] (5 μM); 278 % control and 294 % control in experiment [1] (10 μM). Besides, the “RARE-mediated firefly luciferase expression, Fold increase” value in experiment [1] (1 μM) was 1.4 and 1.5; in experiment [1] (5 μM) it was 2.7 and 2.5; in experiment [1] (10 μM), 2.8 and 2.9.

(Values after patent US11318077B2, “Retinaldehyde containing compositions and methods of use” (RODAN & FIELDS, LLC, priority 2017, dated 2022).)
